pKd: −log10 of the molar value. Non-standard residues stand in square brackets, D forms with d. Residues, ends and D or L forms follow the SMILES beside them. *: point of attachment. pY = N[C@@H](Cc1ccc(OP(=O)(O)O)cc1)C(=O)O; AEEA = NCCOCCOCC(=O)O; X1 = O=C(O)C(C(=O)O)*
What was measured:
[1] = molecular target: T1, full‐length SHP2 (Homo sapiens, UniProt Q06124); experiment: DiFMUP phosphatase assay, peptide activation (no activator); type: biochemical; conditions: 0.5 nM full-length SHP2, no tandem activator, peptide 0.096 nM – 51.2 µM
T1 construct: 1–525) proteins were prepared; His-SUMO3 (pETM11-SUMO3 vector) (N, cleaved yes); made in house; host or cells: E. coli BL21(DE3)
T1 sequence (Q06124 1-525): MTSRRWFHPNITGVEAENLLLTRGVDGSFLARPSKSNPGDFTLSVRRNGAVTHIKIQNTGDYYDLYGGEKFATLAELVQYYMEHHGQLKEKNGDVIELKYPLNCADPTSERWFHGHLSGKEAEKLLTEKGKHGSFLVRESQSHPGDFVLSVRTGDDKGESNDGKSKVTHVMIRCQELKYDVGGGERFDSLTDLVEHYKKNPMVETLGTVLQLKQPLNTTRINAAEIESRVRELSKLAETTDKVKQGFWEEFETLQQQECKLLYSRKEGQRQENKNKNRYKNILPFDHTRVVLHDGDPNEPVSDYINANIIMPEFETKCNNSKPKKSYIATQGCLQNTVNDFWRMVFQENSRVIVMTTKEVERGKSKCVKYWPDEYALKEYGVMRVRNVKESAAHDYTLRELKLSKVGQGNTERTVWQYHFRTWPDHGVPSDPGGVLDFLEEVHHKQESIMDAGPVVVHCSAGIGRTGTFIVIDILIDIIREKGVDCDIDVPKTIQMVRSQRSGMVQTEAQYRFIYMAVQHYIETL
Method: 6. DiFMUP phosphatase assays
SHP2 dephosphorylation of the fluorogenic substrate 6,8-difluoro-4-methylumbiliferyl phosphate (DiFMUP) was measured to evaluate the effect of acetylated peptides on SHP2 activity. Final concentrations of 0.5 nM full-length SHP2, 200 µM DiFMUP (Invitrogen) and 26 nM bisphosphorylated tandem ITIM-[dPEG4]2-ITSM (CASLO ApS) were used, unless stated otherwise, per well in 96-well plates (OptiPlate-96 F Black; PerkinElmer). For peptide activation assays, each well contained 60 µL of reaction buffer (50 mM HEPES pH 7.6, 150 mM NaCl, 1 mM EDTA, 0.05% Tween 20, freshly added 5 mM DTT), 10 µL of SHP2 and 20 µL of the test peptide (0.096 nM – 51.2 µM final concentration). For peptide inhibition assays in the presence of a SHP2 activator, each well contained 40 µL of reaction buffer (50 mM HEPES pH 7.6, 150 mM NaCl, 1 mM EDTA, 0.05% Tween 20, freshly added 5 mM DTT), 10 µL of SHP2 and 40 µL of previously mixed bisphosphorylated tandem ITIM-[dPEG4]2-ITSM activator and test peptide (0.096 nM – 51.2 µM or 0.376 nM – 200 µM final concentration). […] The fluorescence was immediately measured on a Synergy H1 Microplate Reader (BioTek) with the excitation and emission monitored at 358 nm and 452 nm, respectively, over 30 minutes. Data were analysed in Excel 2016 by subtracting background values from emission values and calculating the slope of the emission profiles. […]

[2] = molecular target: T2, SHP2 C‐SH2 domain (Homo sapiens, UniProt Q06124); experiment: Isothermal titration calorimetry (ITC), SHP2 C-SH2 domain; type: binding; conditions: 20 mM Tris-HCl pH 7.6, 150 mM NaCl, 1:1 stoichiometry assumed, one experiment, read-out: K D, C‐SH2 (ITC)
T2 construct: SHP2 N-SH2 domain (1–105), C-SH2 domain (106–220), PTP domain (224–541) and; His6 (pETM22 vector) (N, cleaved yes); made in house; host or cells: E. coli BL21(DE3)
T2 sequence (Q06124 106-220): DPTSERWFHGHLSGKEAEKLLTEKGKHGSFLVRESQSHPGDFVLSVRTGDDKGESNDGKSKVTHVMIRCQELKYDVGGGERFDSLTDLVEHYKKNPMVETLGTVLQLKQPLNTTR
Method: (§1) concentration of 100 nM in a final volume of 200 µL. For baseline subtraction, each peptide was added to FP buffer, instead of protein, with a final peptide concentration of 100 nM in a final volume of 200 µL. Samples were mixed gently then 3 x 60 µL of each sample was transferred into triplicate wells in a 96-well plate (OptiPlate-96 F Black; PerkinElmer). The FP was immediately measured on a Synergy H1 Microplate Reader (BioTek) with the excitation and emission monitored at 485 nm and 528 nm, respectively, over 30 minutes. FP values were automatically calculated by the Gen5 3.03 (BioTek) software associated with the microplate reader. Data were analysed in Excel 2016 by subtracting baseline values from FP values at 10 minutes. Data were then further analysed in GraphPad Prism 6 by plotting the baseline subtracted FP values against the protein concentration and fitting the data to a variable slope model of non-linear regression to obtain the KD values. Data are from three independent experiments, each performed in technical triplicates.
(§2) 5. Isothermal titration calorimetry
(§3) Isothermal titration calorimetry (ITC) was used to measure the binding of the Ac-ITSM(pTyr) to the SHP2 C-SH2 or N-SH2 domain. […]

[3] = molecular target: T3, SHP2 N‐SH2 domain (Homo sapiens, UniProt Q06124); experiment: Isothermal titration calorimetry (ITC), SHP2 N-SH2 domain; type: binding; conditions: 20 mM Tris-HCl pH 7.6, 150 mM NaCl, 1:1 stoichiometry assumed, one experiment, read-out: K D, N‐SH2 (ITC)
T3 construct: SHP2 N-SH2 domain (1–105), C-SH2 domain (106–220), PTP domain (224–541) and; His6 (pETM22 vector) (N, cleaved yes); made in house; host or cells: E. coli BL21(DE3)
T3 sequence (Q06124 1-105): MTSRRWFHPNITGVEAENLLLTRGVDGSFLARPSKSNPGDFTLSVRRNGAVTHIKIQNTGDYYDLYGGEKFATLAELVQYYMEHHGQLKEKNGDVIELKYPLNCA
Method: as §1, §2, §3

[4] = system: WT HeLa cells; conditions: CCK-8, 100–300 µM, 16 h; three or four independent experiments in technical triplicates
Method: (§4) three or four independent experiments with 4 – 7 images taken per well in each […]
(§5) 7. Peptide cytotoxicity assays
(§6) The cytotoxicity of acetylated peptide 29 in WT Jurkat T cells and WT HeLa cells was determined using Cell Counting Kit-8 (CCK-8). Jurkat cells were seeded at 5 x 10^4 cells/well and HeLa cells were seeded at 5 x 10^3 cells/well in 96-well flat-bottom cell culture plates (Greiner Bio-One). HeLa cells were allowed to adhere overnight at 37°C […]
(§7) 200 µM for Jurkat cells and 100 µM, 200 µM or 300 µM for HeLa cells in a total volume of 100 µL, each concentration in triplicate wells. In addition, three wells containing media alone as the background, three wells containing vehicle (H2O) treated cells as the negative control and three wells containing cells treated with 5% DMSO (Jurkat cells) or 20% DMSO (HeLa cells) to induce cell death as the positive control, were included in the plate. Cells were incubated with the peptide or controls for 24 hours (Jurkat cells) or 16 hours (HeLa cells) at 37°C and 5% CO2, then 10 µL of CCK-8 solution (Sigma-Aldrich) was added to each well and incubated for 1.5 hours at 37°C

[5] = system: WT Jurkat T cells; conditions: CCK-8, 50–200 μM, 24 h; four independent experiments in technical triplicates
Method: as §4, §5, §6, §7

| Structure (SMILES) | SHP2 phosphatase activity with peptide alone (activation) [1] | pKd [2] | pKd [3] | cytotoxicity (viability) in HeLa cells [4] | cytotoxicity (viability) in Jurkat cells [5] |
| --- | --- | --- | --- | --- | --- |
| CC[C@H](C)[C@H](NC(=O)[C@@H](NC(=O)[C@H](C)NC(=O)[C@H](Cc1ccc(OP(=O)(O)O)cc1)NC(=O)[C@H](CCC(=O)O)NC(=O)[C@@H](NC(=O)[C@H](CCC(N)=O)NC(=O)[C@H](CCC(=O)O)NC(C)=O)[C@@H](C)O)[C@@H](C)O)C(=O)N[C@H](C(=O)N[C@@H](Cc1ccccc1)C(=O)N1CCC[C@H]1C(N)=O)C(C)C [Ac‐ITSM(pTyr)] (Ac-EQTE[pY]ATIVFP-NH2) | increased | 7.23 | 6.98 |  |  |
| CC[C@H](C)[C@H](NC(=O)[C@@H](NC(=O)[C@H](C)NC(=O)[C@H](Cc1ccc(OC(C(=O)O)C(=O)O)cc1)NC(=O)[C@H](CCC(=O)O)NC(=O)[C@@H](NC(=O)[C@H](CCC(N)=O)NC(=O)COCCOCCNC(=O)[C@@H](CCCNC(=N)N)NC(=O)[C@@H](CCCNC(=N)N)NC(=O)[C@@H](CCCNC(=N)N)NC(=O)[C@@H](CCCNC(=N)N)NC(=O)[C@@H](CCCNC(=N)N)NC(=O)[C@@H](CCCNC(=N)N)NC(=O)[C@@H](CCCNC(=N)N)NC(=O)[C@@H](CCCNC(=N)N)NC(C)=O)[C@@H](C)O)[C@@H](C)O)C(=O)N[C@@H](CCCCN)C(=O)N[C@@H](Cc1c[nH]cn1)C(=O)N1CCC[C@H]1C(N)=O [peptide 29] (Ac-[dR][dR][dR][dR][dR][dR][dR][dR][AEEA]QTEY(X1)ATIKHP-NH2) |  |  |  | no toxicity | only started showing a trend toward some toxicity at the highest concentration of 200 μM |

Source: article PMC12118337, “Development of a Peptide Inhibitor Targeting the C‐SH2 Domain of the SHP2 Phosphatase” (Chembiochem, 2025)
